Values quoted from earlier work in patent US6391843B1, “Chemical linker compositions” (Colgate-Palmolive Co., priority 1996, dated 2002).

System: insect
Conditions: hard surface cleaning composition

For Methylneodecanamide [MNDA], the “amount of MNDA necessary to deposit to have one day efficacy” value is listed as 10 micrograms of MNDA per cm2.
